“Also recorded” adds a separate entry of the source.
Assays:
isolated rat adipocytes = experiment: glucose transport (2-deoxyglucose uptake) in isolated rat adipocytes; format: cell-based; details: for stimulatory effect on glucose transport in the presence of semicarbazide: 1 mM semicarbazide (SSAO inhibitor); for stimulation of glucose transport: 45 min incubation
Experimental: In order to determine whether salts formed by vanadate and benzylamine could produce an insulin mimetic effect, the effect of increasing concentrations of hexaquis(benzylammonium) decavanadate on glucose transport activity in isolated rat adipocytes was tested. Hexaquis(benzylammonium) decavanadate induced the stimulation of glucose transport which was perceptible from concentrations of 0.5 μM, with a maximal effect observed 2.5 μM and the semimaximal effect above 1 μM. […] The maximum effect provoked by incubation with hexaquis(benzylammonium) decavanadate was greater than that produced by the presence of benzylamine and vanadate in combination (FIG. 1). […] In similar assays, the activity of hexaquis(benzylammonium) decavanadate, pentaquis(benzylammonium) decavanadate and tetraquis(benzylammonium) decavanadate on glucose transport activity in isolated rat adipocytes were analyzed.
To determine the possible insulin mimetic effect of certain vanadium arylalkylamines, the capacity of these compounds to enhance glucose transport in isolated rat adipocytes was tested. Adipose cells from Wistar rats were incubated for 45 minutes in basal conditions (Basal) or in the presence of 100 nM insulin (Ins), and different concentrations of. hexaquis(benzylammonium) decavanadate (B6V10) in the absence or in the presence of 1 mM semicarbazide (SCZ). Subsequently, 2-DG transport was measured over a 5 min. interval.
The effects of the three tested compounds (B6V10, B5V10 and B4V10) were compared. Adipose cells from Wistar rats were incubated for 45 minutes in basal conditions (Basal) or in the presence of 100 nM insulin (Ins), and different concentrations of. decavanadate (V10), hexaquis(benzylammonium) decavanadate (B6V10), pentaquis(benzylammonium) decavanadate (B5V10) or tetraquis(benzylammonium) decavanadate (B4V10) in the absence or in the presence of 1 mM semicarbazide (SCZ). 2-DG transport was measured over 5 min. intervals. […] The stimulation of all three compounds on glucose transport was blocked in the presence of semicarbazide.
In additional experiments, compounds shown in FIG. 6A (named 2-(4-fluoro-phenyl)-ethylamine (compound A), 3-phenyl-propylamine (compound B), 4-fluoro-benzylamine (compound C) and 4-phenyl-butylamine (compound D)) were assessed using the experimental methods set forth above for the capacity to stimulate 2-DG uptake in isolated rat adipocytes. Adipose cells from Wistar rats were incubated for 45 minutes in basal conditions (Basal) or in the presence of 100 nM insulin (Ins), and different concentrations of vanadium salts of 2-(4-fluoro-phenyl)-ethylamine (compound A), 3-phenyl-propylamine (compound B), 4-fluoro-benzylamine (compound C) and 4-phenyl-butylamine (compound D). 2-DG transport was measured over 5 min.
(§1) The effects of incubation with semicarbazide or phosphatidylinositol 3-kinase inhibitors were also investigated. Adipose cells were incubated with B6V10 (25 μM, 45 min) in the absence or presence of wortmannin (2 μM, 45 min), LY294002 (10 μM, 45 min) or semicarbazide (1 mM, 45 min) and thereafter 2-deoxyglucose uptake was determined during 5 min. Activation of protein kinase B phosphorylation induced by B6V10 was blocked by semicarbazide and it was not observed by decavanadate. In addition, phosphatidylinositol 3-kinase inhibitors wortmannin and LY294002 blocked B6V10-induced glucose transport (FIG. 7E).

[1] = tested on: isolated mouse adipocytes; experiment: glucose transport (2-DG) in isolated mouse adipocytes; format: cell-based; details: 100 μM
Experimental: Adipose cells from FVB mice were incubated for 45 minutes in basal conditions (Basal) or in the presence of 100 nM insulin (Ins), and different concentrations of hexaquis(benzylammonium) decavanadate (B6V10) in the absence or in the presence of 1 mM semicarbazide (SCZ) and thereafter, 2-DG transport was measured over 5 min.

[2] = tested on: adipocytes from treated diabetic rats; experiment: glucose transport in adipocytes isolated from chronically treated diabetic rats; format: in vivo, rat; details: fourteen days of treatment
protein kinase B = protein kinase B phosphorylation in isolated rat adipocytes; format: cell-based; details: 25 μM
Experimental: Isolated fat cells were disrupted for total membrane preparation by hypo-osmotic lysis in a 20 mM HES buffer and an antiprotease and antiphosphatase cocktail as reported by Abella et al. (2003, Diabetes 52: 1004-1013). Protein concentrations were determined by the Bradford method (Bradford, 1976, Anal. Biochem. 72: 248-254) with gamma-globulin as protein concentration standard. Immunoprecipitation and immunoblot assays were performed as previously described by Abella et al. (2004, Id.) with the use of a monoclonal antiphosphotyrosine antibody for the immunoprecipitation and an anti-insulin receptor antibody for immunobloting, respectively. SDS-polyacrylamide gel electrophoresis was performed on membrane proteins following conventional procedures. Proteins were transferred to Immobilon and immunoblotting was performed as reported by Castello et al. (1994, J. Biol. Chem. 269: 5905-5912).
The mechanism of action of B6V10 was investigated in isolated rat adipocytes. Adipose cells from Wistar rats were incubated for different times in the presence of 25 μM hexaquis(benzylammonium) decavanadate (B6V10). Cells were also incubated in the presence of insulin (100 nM, 45 min), decavanadate (25 μM, 45 min) or semicarbazide (1 mM, 45 min). Subsequently, 2-deoxyglucose uptake (results shown in FIG. 7A), tyrosine phosphorylation of insulin receptor (FIG. 7B), phospho-Thr^308-protein kinase B (FIG. 7C) and phospho-Ser^473-protein kinase B (FIG. 7D) was measured. […] The phosphorylation of protein kinase B induced by B6V10 was parallel to activation of glucose transport (FIGS. 7C and 7D).
as §1

high-fat fed mice = experiment: glucose tolerance and plasma insulin in high-fat fed mice; format: in vivo, mouse
Experimental: Insulin and glucose responses during the glucose tolerance test were calculated as the incremental plasma values integrated over a period of 120 min after injection of glucose. Areas under curves of insulin and glucose responses were calculated using the Graph Prism program (SOURCE?). Data distribution was analyzed by the Kolmogorov-Smirnov test. Data were presented as mean ±SEM and unpaired Student's t test was used to compare two groups. When experimental series involved more than two groups, statistical analysis was done by one-way or two-way ANOVA and further post-hoc (Dunnett, Tukey or Bonferroni) t tests. Statistical analysis was performed with SPSS 11.0 or GraphPad Prism 4 programs.

adipocyte lipolysis = experiment: adipocyte lipolysis; format: cell-based
[3] = tested on: streptozotocin-induced diabetic rats with undetectable circulating insulin
Experimental: Male Wistar rats weighting 180-220 g were purchased from Harlan (Interfauna Ibèrica S.A., Spain). Diabetes was induced by a single intraperitoneal injection of a freshly prepared solution of streptozotocin (in some studies the dose was 45 mg/kg body weight and in some others 100 mg/kg body weight dissolved in 50 mM citrate buffer, pH 4.5). Only diabetic animals with glycemia above 300 mg/dl were used. The animals were housed in animal quarters at 22° C. with a 12 h light/12 h dark cycle and were fed ad libitum. All procedures used were approved by the animal ethical committee of the University of Barcelona, Spain.
Osmotic minipumps delivering B6V10 (2.5 μmol/kg body wt/day) or decavanadate (2.5 μmol/kg body wt/day) were implanted subcutaneously in diabetic rats anaesthetised by ketamine hydrochloride (95 mg/kg) and xylasine (10 mg/kg). […] Glycemia was measured on arterio-venous blood collected from the tail vessels at 09:00 am for two weeks, before the administration of vanadate. Insulin concentrations were determined before and after treatment. In another set of experiments, B6V10 was orally administered at a single dose of 5 μmol/kg/day during the first week and 10 μmol/kg/day during 2 additional weeks by gastric gavage. A control group received the corresponding decavanadate salt in the absence of benzylamine. At the end of the treatment, animals were sacrificed and the liver, fat pad, heart and lung were kept at −80° C. and the plasma at −20° C. until their use for in vitro analysis.
In glucose tolerance tests and in chronic treatments, circulating glucose concentrations were determined by a rapid glucose analyser (Accutrend® Sensor Comfort, Roche, Basel. Switzerland). Plasma insulin (IRI) concentration was determined by ELISA method using a kit obtained from Crystal Chem. Inc. (Downers Grove, Ill.).
To this end, rats were made diabetic by the injection of a large dose of streptozotocin (100 mg/kg) that eliminates β-pancreatic insulin content.

[4] = in vivo

With “hexaquis(benzylammonium) decavanadate [Example B6V10]” the “stimulation of glucose transport compared with combination of 100 μM benzylamine and 100 μM vanadate” value (isolated rat adipocytes; 25 μM B6V10, data not shown) was “greater stimulation”, the “stimulatory effect on glucose transport in the presence of semicarbazide” value (isolated rat adipocytes) was “completely blocked” and the “stimulatory effect on glucose transport in the presence of semicarbazide” value (isolated rat adipocytes; listed as hexaquis(benzylammonium) decavanadate) was “completely blocked; also recorded: inhibited”. The “maximum effect on glucose transport compared with benzylamine and vanadate in combination” value (isolated rat adipocytes; combination 100 μM sodium vanadate and 100 μM benzylamine (FIG. 1)) was “greater”, the “maximal effect on glucose transport relative to the maximal stimulation caused by insulin” value (isolated rat adipocytes; insulin 100 nM) was 85% and the “concentration at which maximal effect on glucose transport was observed” value (isolated rat adipocytes; isolated rat adipocytes) was 2.5 µM. The “concentration from which stimulation of glucose transport was perceptible” value (isolated rat adipocytes; isolated rat adipocytes) was 0.5 µM, the “stimulation of glucose transport” value (isolated rat adipocytes; isolated rat adipocytes) was “stimulated glucose transport in rat adipocytes in a concentration-dependent manner” and the “stimulation of glucose transport” value (isolated rat adipocytes; isolated rat adipocytes, listed as hexaquis(benzylammonium) decavanadate) was “pronounced stimulation”. The EC50 (isolated rat adipocytes; isolated rat adipocytes, read-out: semimaximal effect on glucose transport) was > 1000 nM, the “stimulation of glucose transport (increase)” value [1] was 93% and the “glucose transport in adipocytes of treated rats under basal conditions” value [2] was “increased glucose transport under basal conditions equivalent to that seen in the presence of insulin”. For the same substance, the “protein kinase B phosphorylation” value (protein kinase B) was “rapidly stimulated”, the “time after addition at which protein kinase B phosphorylation was detectable” value (protein kinase B) was 2.5 min and the “protein kinase B phosphorylation in the presence of semicarbazide” value (protein kinase B; semicarbazide 1 mM, 45 min) was “blocked”. For the same substance, the plasma insulin levels (high-fat fed mice; acute administration, mice made glucose intolerant by a high fat diet) was “improved plasma insulin levels; also recorded: ameliorated the pattern of plasma insulin levels”, the glucose tolerance (high-fat fed mice; high-fat fed mice) was “amelioration of glucose tolerance” and the adipocyte lipolysis (adipocyte lipolysis) was “inhibited”. For the same substance, the plasma glucose ([3]; after 28 days, 2.5 μmol/kg) was “reduced”, the plasma insulin ([3]; after 28 days, 2.5 μmol/kg) was “without any observable change” and the “body weight or organ weights” value ([3]; rat, in vivo) was “did not affect”. For the same substance, the hypoglycemia [4] was “did not cause hypoglycemia” and the toxicological side effects [4] was “did not show toxicological side effects”.

From US20080227809A1, “Arylalkylamine Vanadium (V) Salts for the Treatment and/or Prevention of Diabetes Mellitus” (GENMEDICA THERAPEUTICS SL, priority 2004, published 2008)
